Here are results for 23 compounds from patent US20260184707A1, “PHARMACEUTICAL COMPOUNDS FOR THE TREATMENT OF COMPLEMENT MEDIATED DISORDERS” (ALEXION PHARMACEUTICALS, INC., priority 2022, published 2026).

By IC50 is commonly meant the concentration that gives 50% inhibition.

The target in the assay is T1, Human complement C1s enzyme (Homo sapiens, UniProt P09871).
T1 construct: purified from human serum, Complement Technology, Inc; purchased Complement Technology, Inc; host or cells: human serum (plasma-derived native protein)
T1 sequence (P09871 438-688 limits assumed): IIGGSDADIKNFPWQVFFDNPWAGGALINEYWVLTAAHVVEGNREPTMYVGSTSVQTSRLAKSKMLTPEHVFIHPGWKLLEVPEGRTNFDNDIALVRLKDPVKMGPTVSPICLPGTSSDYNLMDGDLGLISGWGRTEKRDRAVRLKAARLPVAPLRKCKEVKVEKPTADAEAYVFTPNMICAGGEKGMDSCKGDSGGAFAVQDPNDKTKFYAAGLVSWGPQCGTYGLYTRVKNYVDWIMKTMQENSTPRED
T1 sequence (P09871 16-437 partner limits assumed): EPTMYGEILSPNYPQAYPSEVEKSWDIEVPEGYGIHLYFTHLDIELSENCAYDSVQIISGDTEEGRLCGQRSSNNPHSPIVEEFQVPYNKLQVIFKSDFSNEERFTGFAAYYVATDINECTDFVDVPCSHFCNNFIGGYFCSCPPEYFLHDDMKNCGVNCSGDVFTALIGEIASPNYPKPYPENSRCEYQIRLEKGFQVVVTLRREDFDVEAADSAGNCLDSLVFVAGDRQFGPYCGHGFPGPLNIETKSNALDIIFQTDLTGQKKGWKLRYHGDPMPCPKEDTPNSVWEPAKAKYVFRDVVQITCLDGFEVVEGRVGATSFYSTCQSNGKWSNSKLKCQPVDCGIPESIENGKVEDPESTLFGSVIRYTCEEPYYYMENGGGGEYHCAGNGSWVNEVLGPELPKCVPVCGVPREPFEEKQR
The experiment in a line: Human C1s enzyme assay. It is filed as biochemical. Conditions: human complement C1s enzyme 1.16 nM, substrate Z-L-Lys-SBzl, A405; read-out: IC50 (Stars). A digest of the protocol:
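Serum-purified human C1s (1.16 nM final) preincubated 5 min at room temperature with compound in 50 mM Tris, 1 M NaCl, pH 7.5. Z-L-Lys-SBzl and DTNB added at 100 μM each; A405 recorded every 30 s. IC50 from nonlinear regression of reaction rates versus compound concentration.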

As to `O=C(Cn1c(-c2ccccc2)ncc(NC(=O)c2ccc(-c3cnco3)cc2)c1=O)NCc1cc2cnccc2[nH]1` [Compound 93, N-(1-(2-(((1H-pyrrolo[3,2-c]pyridin-2-yl)methyl)amino)-2-oxoethyl)-6-oxo-2-phenyl-1,6-dihydropyrimidin-5-yl)-4-(oxazol-5-yl)benzamide], the 50% inhibitory concentration (IC50) is less than 0.1 µM.
As to `O=C(Cn1c(-c2ccccc2)ncc(NC(=O)c2ccc(Oc3nccs3)cc2)c1=O)NCc1cc2cnccc2[nH]1` [Compound 94, N-(1-(2-(((1H-pyrrolo[3,2-c]pyridin-2-yl)methyl)amino)-2-oxoethyl)-6-oxo-2-phenyl-1,6-dihydropyrimidin-5-yl)-4-(thiazol-2-yloxy)benzamide], the half-inhibitory concentration (IC50) is less than 0.1 µM.
Regarding `CO[C@@H]1CO[C@H]2[C@@H]1OC[C@H]2OCCCNc1cnc(-c2ccccc2)n(CC(=O)NCc2cc3cnccc3[nH]2)c1=O` [Compound 95, N-((1H-pyrrolo[3,2-c]pyridine-2-yl)methyl)-2-(5-((3-(((3R,3aR,6R,6aR)-6-methoxyhexahydrofuro[3,2-b]furan-3-yl)oxy)propyl)amino)-6-oxo-2-phenylpyrimidin-1(6H)-yl)acetamide], the half-inhibitory concentration (IC50) is less than 0.1 µM.
Turning to `O=C(Cn1c(-c2ccc(S(F)(F)(F)(F)F)cc2)ncc(NCCCc2ccccc2)c1=O)NCc1cc2cnccc2[nH]1` [Compound 96, N-((1H-pyrrolo[3,2-c]pyridine-2-yl)methyl)-2-(6-oxo-2-(4-(pentafluoro-λ^6-sulfanyl)phenyl)-5-((3-phenylpropyl)amino)pyrimidin-1(6H)-yl)acetamide], the IC50 is less than 0.1 µM.
With `O=C(Cn1c(-c2ccccc2)ncc(NC(=O)c2ccc3oc4ccccc4c3c2)c1=O)NCc1cc2cnccc2[nH]1` [Compound 97, N-(1-(2-(((1H-pyrrolo[3,2-c]pyridin-2-yl)methyl)amino)-2-oxoethyl)-6-oxo-2-phenyl-1,6-dihydropyrimidin-5-yl)dibenzo [b,d]furan-2-carboxamide] the figure was less than 0.1 µM; with `COc1ccc(-c2ccc(C(=O)Nc3cnc(-c4ccccc4)n(CC(=O)NCc4cc5cnccc5[nH]4)c3=O)cc2)cc1` [Compound 98, N-(1-(2-(((1H-pyrrolo[3,2-c]pyridin-2-yl)methyl)amino)-2-oxoethyl)-6-oxo-2-phenyl-1,6-dihydropyrimidin-5-yl)-4′-methoxy-[1,1′-biphenyl]-4-carboxamide], less than 0.1 µM.
As for `O=C(Cn1c(-c2ccccc2)ncc(NC(=O)c2ccc(-c3ccc(F)cc3)cc2)c1=O)NCc1cc2cnccc2[nH]1` [Compound 99, N-(1-(2-(((1H-pyrrolo[3,2-c]pyridin-2-yl)methyl)amino)-2-oxoethyl)-6-oxo-2-phenyl-1,6-dihydropyrimidin-5-yl)-4′-fluoro-[1,1′-biphenyl]-4-carboxamide], the half-maximal inhibitory concentration (IC50) is less than 0.1 µM.
As for `O=C(Cn1c(-c2ccccc2)cnc(NC(=O)c2ccc(-c3ccccc3)cc2)c1=O)NCc1cc2cnccc2[nH]1` [Compound 100, N-(4-(2-(((1H-pyrrolo[3,2-c]pyridin-2-yl)methyl)amino)-2-oxoethyl)-3-oxo-5-phenyl-3,4-dihydropyrazin-2-yl)-[1,1′-biphenyl]-4-carboxamide], the figure is less than 0.1 µM; as for `O=C(Cn1c(-c2ccccc2)cnc(NC(=O)c2ccc3oc4ccccc4c3c2)c1=O)NCc1cc2cnccc2[nH]1` [Compound 101, N-(4-(2-(((1H-pyrrolo[3,2-c]pyridin-2-yl)methyl)amino)-2-oxoethyl)-3-oxo-5-phenyl-3,4-dihydropyrazin-2-yl)dibenzo [b,d]furan-2-carboxamide], less than 0.1 µM; as for `O=C(Cn1c(-c2ccccc2)ncc(NC(=O)c2cccc(-c3ccco3)c2)c1=O)NCc1cc2cnccc2[nH]1` [Compound 102, N-(1-(2-(((1H-pyrrolo[3,2-c]pyridin-2-yl)methyl)amino)-2-oxoethyl)-6-oxo-2-phenyl-1,6-dihydropyrimidin-5-yl)-3-(furan-2-yl)benzamide], less than 0.1 µM.
With `O=C(Cn1c(-c2ccccc2)ncc(NCCCc2ccc(OC3COC3)cc2)c1=O)NCc1cc2cnccc2[nH]1` [Compound 103, N-((1H-pyrrolo[3,2-c]pyridine-2-yl)methyl)-2-(5-((3-(4-(oxetan-3-yl-oxy)phenyl)propyl)amino)-6-oxo-2-phenylpyrimidin-1(6H)-yl)acetamide] the figure was less than 0.1 µM; with `O=C(Cn1c(-c2ccccc2)ncc(NCCCc2ccc(S(F)(F)(F)(F)F)cc2)c1=O)NCc1cc2cnccc2[nH]1` [Compound 104, N-((1H-pyrrolo[3,2-c]pyridin-2-yl)methyl)-2-(6-oxo-5-((3-(4-(pentafluoro-lambda6-sulfaneyl)phenyl)propyl)-amino)-2-phenylpyrimidin-1(6H)-yl)acetamide], less than 0.1 µM.
With `CS(=N)(=O)c1ccc(CCCNc2cnc(-c3ccccc3)n(CC(=O)NCc3cc4cnccc4[nH]3)c2=O)cc1` (centres unmarked) [Compound 105, N-((1H-pyrrolo[3,2-c]pyridine-2-yl)methyl)-2-(5-((3-(4-(S-methylsulfonimidoyl)phenyl)propyl)amino)-6-oxo-2-phenylpyrimidin-1(6H)-yl) acetamide] the figure was less than 0.1 µM; with `O=C(Cn1c(-c2ccccc2)ncc(NC(=O)c2cnc(-c3ccccc3)s2)c1=O)NCc1cc2cnccc2[nH]1` [Compound 106, N-(1-(2-(((1H-pyrrolo[3,2-c]pyridin-2-yl)methyl)amino)-2-oxoethyl)-6-oxo-2-phenyl-1,6-dihydropyrimidin-5-yl)-2-phenylthiazole-5-carboxamide], less than 0.1 µM.
Turning to `O=C(Cn1c(-c2ccccc2)ncc(NC(=O)c2cnc(-c3ccccc3)o2)c1=O)NCc1cc2cnccc2[nH]1` [Compound 107, N-(1-(2-(((1H-pyrrolo[3,2-c]pyridin-2-yl)methyl)amino)-2-oxoethyl)-6-oxo-2-phenyl-1,6-dihydropyrimidin-5-yl)-2-phenyloxazole-5-carboxamide], the IC50 was less than 0.1 µM.
For the compound `O=C(Cn1c(-c2ccccc2)ncc(NC(=O)c2ccc(-c3ncco3)cc2)c1=O)NCc1cc2cnccc2[nH]1` [Compound 108, N-(1-(2-(((1H-pyrrolo[3,2-c]pyridin-2-yl)methyl)amino)-2-oxoethyl)-6-oxo-2-phenyl-1,6-dihydropyrimidin-5-yl)-4-(oxazol-2-yl)benzamide], the IC50 is less than 0.1 µM.
With `COc1ccc(-c2cc(C(=O)Nc3cnc(-c4ccccc4)n(CC(=O)NCc4cc5cnccc5[nH]4)c3=O)on2)cc1` [Compound 109, N-(1-(2-(((1H-pyrrolo[3,2-c]pyridin-2-yl)methyl)amino)-2-oxoethyl)-6-oxo-2-phenyl-1,6-dihydropyrimidin-5-yl)-3-(4-methoxyphenyl)isoxazole-5-carboxamide], the IC50 was less than 0.1 µM.
With `O=C(Cn1c(-c2ccccc2)ncc(NC(=O)c2ccc(-c3ccccc3)s2)c1=O)NCc1cc2cnccc2[nH]1` [Compound 110, N-(1-(2-(((1H-pyrrolo[3,2-c]pyridin-2-yl)methyl)amino)-2-oxoethyl)-6-oxo-2-phenyl-1,6-dihydropyrimidin-5-yl)-5-phenylthiophene-2-carbox-amide] the figure was less than 0.1 µM; with `O=C(Cn1c(-c2ccccc2)ncc(NC(=O)c2coc(-c3ccccc3)n2)c1=O)NCc1cc2cnccc2[nH]1` [Compound 111, N-(1-(2-(((1H-pyrrolo[3,2-c]pyridin-2-yl)methyl)amino)-2-oxoethyl)-6-oxo-2-phenyl-1,6-dihydropyrimidin-5-yl)-2-phenyloxazole-4-carboxamide], less than 0.1 µM.
Regarding `O=C(Cn1c(-c2ccccc2)ncc(NCc2ccc3c(c2)C(F)(F)c2ccccc2-3)c1=O)NCc1cc2cnccc2[nH]1` [Compound 112, N-((1H-pyrrolo[3,2-c]pyridin-2-yl)methyl)-2-(5-(((9,9-difluoro-9H-fluoren-2-yl)meth-yl)amino)-6-oxo-2-phenyl-pyrimidin-1(6H)-yl)acetamide], the 50% inhibitory concentration (IC50) is less than 0.1 µM.
With `O=C(Cn1c(-c2ccccc2)ncc(NCCCc2cc3ccc2CCc2ccc(cc2)CC3)c1=O)NCc1cc2cnccc2[nH]1` [Compound 113, 2-(5-((3-(1,4(1,4)-dibenzenacyclohexaphane-1^2-yl)propyl)amino)-6-oxo-2-phenylpyrimidin-1(6H)-yl)-N-((1H-pyrrolo[3,2-c]pyridine-2-yl)methyl)acetamide] the figure was less than 0.1 µM; with `CS(=O)(=NC#N)c1ccc(-c2ncc(NCCCc3ccccc3)c(=O)n2CC(=O)NCc2cc3cnccc3[nH]2)cc1` (centres unmarked) [Compound 114, N-((1H-pyrrolo[3,2-c]pyridine-2-yl)methyl)-2-(2-(4-(N-cyano-S-methylsulfonimidoyl)phenyl)-6-oxo-5-((3-phenylpropyl)amino)pyrimidin-1(6H)-yl)acetamide], less than 0.1 µM; with `COc1cc(C(=O)Nc2cnc(-c3ccccc3)n(CC(=O)NCc3cc4cnccc4[nH]3)c2=O)ccc1-c1ccccc1` [Compound 115, N-(1-(2-(((1H-pyrrolo[3,2-c]pyridin-2-yl)methyl)amino)-2-oxoethyl)-6-oxo-2-phenyl-1,6-dihydropyrimidin-5-yl)-2-methoxy-[1,1′-biphenyl]-4-carboxamide], less than 0.1 µM.
